Source: ChEMBL document CHEMBL5715956, “Selective Targeting of Bromodomains of the Bromodomain-PHD Fingers Family Impairs Osteoclast Differentiation” (ACS Chem Biol, 2017)

What was measured:
Homo sapiens = species: Homo sapiens; test: Binding affinity to Cl channel GABA gated receptor (unknown origin) assessed as specific binding at 10 uM relative to control
[1] = molecular target: Protein polybromo-1 (Homo sapiens) (UniProt Q86U86); settings: dose 10.0 µM
[2] = molecular target: Histone acetyltransferase KAT2B (Homo sapiens) (UniProt Q92831); settings: dose 10.0 µM
Sequence of Histone acetyltransferase KAT2B (Homo sapiens) (Q92831 whole entry, looked up): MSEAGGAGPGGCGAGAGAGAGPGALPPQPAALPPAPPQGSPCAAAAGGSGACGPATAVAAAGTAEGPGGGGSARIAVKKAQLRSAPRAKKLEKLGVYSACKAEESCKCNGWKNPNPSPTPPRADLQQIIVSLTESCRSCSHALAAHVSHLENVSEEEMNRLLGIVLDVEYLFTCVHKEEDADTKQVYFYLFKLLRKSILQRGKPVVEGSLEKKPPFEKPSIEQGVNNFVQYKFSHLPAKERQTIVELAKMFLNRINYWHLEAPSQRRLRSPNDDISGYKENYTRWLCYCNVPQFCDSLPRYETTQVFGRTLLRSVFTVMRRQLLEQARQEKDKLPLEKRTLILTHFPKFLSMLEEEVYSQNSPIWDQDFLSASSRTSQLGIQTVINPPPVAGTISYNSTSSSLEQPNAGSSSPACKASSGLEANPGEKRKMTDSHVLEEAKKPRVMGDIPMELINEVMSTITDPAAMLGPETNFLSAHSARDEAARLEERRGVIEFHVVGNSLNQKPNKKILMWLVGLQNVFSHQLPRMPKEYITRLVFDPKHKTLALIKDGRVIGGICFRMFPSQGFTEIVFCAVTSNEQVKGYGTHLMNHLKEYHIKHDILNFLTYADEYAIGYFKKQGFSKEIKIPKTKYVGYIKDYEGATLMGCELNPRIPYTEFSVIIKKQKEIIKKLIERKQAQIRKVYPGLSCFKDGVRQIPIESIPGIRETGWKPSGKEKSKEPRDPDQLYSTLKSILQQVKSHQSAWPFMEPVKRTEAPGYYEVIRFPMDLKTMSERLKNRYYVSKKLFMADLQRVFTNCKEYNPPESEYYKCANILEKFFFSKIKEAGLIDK

Sequence of Protein polybromo-1 (Homo sapiens) (Q86U86 whole entry): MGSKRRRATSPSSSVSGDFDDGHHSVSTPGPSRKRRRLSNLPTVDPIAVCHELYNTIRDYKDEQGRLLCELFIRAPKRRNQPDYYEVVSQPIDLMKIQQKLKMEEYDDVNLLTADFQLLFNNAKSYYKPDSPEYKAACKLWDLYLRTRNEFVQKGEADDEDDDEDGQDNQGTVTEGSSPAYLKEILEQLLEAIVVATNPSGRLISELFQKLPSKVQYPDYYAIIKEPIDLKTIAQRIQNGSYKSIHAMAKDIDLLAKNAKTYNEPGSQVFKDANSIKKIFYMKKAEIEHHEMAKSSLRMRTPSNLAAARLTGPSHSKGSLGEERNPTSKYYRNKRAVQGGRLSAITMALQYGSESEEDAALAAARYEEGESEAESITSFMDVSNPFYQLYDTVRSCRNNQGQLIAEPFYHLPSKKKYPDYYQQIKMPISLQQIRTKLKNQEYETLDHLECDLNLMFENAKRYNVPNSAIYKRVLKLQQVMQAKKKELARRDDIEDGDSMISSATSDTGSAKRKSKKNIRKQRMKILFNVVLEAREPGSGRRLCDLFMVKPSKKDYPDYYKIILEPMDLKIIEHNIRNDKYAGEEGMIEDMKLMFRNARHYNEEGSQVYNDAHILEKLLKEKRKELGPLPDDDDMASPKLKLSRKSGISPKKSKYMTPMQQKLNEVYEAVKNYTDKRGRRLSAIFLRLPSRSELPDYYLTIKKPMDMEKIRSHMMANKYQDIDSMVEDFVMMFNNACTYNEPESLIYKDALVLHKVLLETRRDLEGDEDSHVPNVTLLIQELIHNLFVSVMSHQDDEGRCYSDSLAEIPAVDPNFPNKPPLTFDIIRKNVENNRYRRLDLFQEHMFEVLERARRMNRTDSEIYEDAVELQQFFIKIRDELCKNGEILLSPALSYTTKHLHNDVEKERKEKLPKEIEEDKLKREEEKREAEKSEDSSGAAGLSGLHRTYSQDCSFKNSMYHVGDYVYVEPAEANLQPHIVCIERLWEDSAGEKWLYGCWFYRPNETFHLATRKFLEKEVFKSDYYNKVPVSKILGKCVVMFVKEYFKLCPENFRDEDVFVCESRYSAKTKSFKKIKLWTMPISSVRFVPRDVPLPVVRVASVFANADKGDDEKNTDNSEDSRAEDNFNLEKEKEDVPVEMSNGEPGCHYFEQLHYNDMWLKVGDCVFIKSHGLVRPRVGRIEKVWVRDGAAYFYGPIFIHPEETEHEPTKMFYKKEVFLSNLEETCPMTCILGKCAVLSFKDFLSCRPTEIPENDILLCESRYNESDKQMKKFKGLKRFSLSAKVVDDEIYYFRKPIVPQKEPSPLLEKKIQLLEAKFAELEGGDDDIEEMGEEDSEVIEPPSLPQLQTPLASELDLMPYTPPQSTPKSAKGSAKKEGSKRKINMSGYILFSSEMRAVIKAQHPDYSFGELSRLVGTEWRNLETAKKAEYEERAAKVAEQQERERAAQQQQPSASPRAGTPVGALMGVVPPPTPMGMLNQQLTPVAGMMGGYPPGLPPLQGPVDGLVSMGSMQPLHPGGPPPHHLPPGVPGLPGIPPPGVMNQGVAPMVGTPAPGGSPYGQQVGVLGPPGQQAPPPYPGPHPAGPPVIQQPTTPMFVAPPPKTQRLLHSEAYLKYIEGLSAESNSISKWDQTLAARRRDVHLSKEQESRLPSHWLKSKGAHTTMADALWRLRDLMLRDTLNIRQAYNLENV

## COc1cc2c(cc1NS(=O)(=O)c1ccc(Br)cc1C)n(C)c(=O)n2C
Homo sapiens
  Activity: 95.3%
[1]
  ΔTm: 0.6 °C
[2]
  ΔTm: 0.3 °C
